Activity calls are given as the source filed them. No cut-off for these calls is given here.
Assays:
[1] = test system: HepG2; assay: Cytotoxicity against human HepG2 cells at 10 to 100 uM after 24 hrs by MTT assay; type: functional, cell-based
[2] = test system: HepG2; assay: Induction of intracellular NO release in human HepG2 cells at 30 uM after 6 hrs by Griess assay; type: functional, cell-based
[3] = test system: Bel-7402; assay: Cytotoxicity against human Bel7402 cells at 30 uM after 24 hrs by MTT assay; type: functional
[4] = test system: HepG2; assay: Cytotoxicity against human HepG2 cells at 30 uM after 24 hrs by MTT assay; type: functional
[5] = test system: SMMC-7721; assay: Cytotoxicity against human SMMC7721 cells at 30 uM after 24 hrs by MTT assay; type: functional
[6] = test system: HepG2; assay: Induction of intracellular NO release in human HepG2 cells at 10 uM after 24 hrs by DAF-FM DA staining-based flow cytometry; type: functional, cell-based
[7] = test system: HepG2; assay: Cytotoxicity against human HepG2 cells assessed as cell viability at 3 uM after 24 hrs by MTT assay in presence of hemoglobin; type: functional, cell-based
[8] = test system: HepG2; assay: Cytotoxicity against human HepG2 cells assessed as cell viability at 3 uM after 24 hrs by MTT assay; type: functional
[9] = test system: HepG2; assay: Cytotoxicity against human HepG2 cells assessed as cell viability at 3 uM after 24 hrs by MTT assay in presence of EA; type: functional

Question: `CN(CCO)/[N+]([O-])=N\Oc1cc(N2CCN(CC(=O)O)CC2)c([N+](=O)[O-])cc1[N+](=O)[O-]` was tested. Which Activity [1] did it give?
Answer: Active

Question: For `CN(CCO)/[N+]([O-])=N/Oc1cc(NCC(=O)O[C@H]2CC[C@]3(C)[C@H]4CC=C5[C@@H]6CC(C)(C)CC[C@]6(C(=O)O[C@@H]6O[C@H](CO)[C@H](O)[C@H](O)[C@H]6O)CC[C@@]5(C)[C@]4(C)CC[C@H]3C2(C)C)c([N+](=O)[O-])cc1[N+](=O)[O-]`, which Activity [2] is on record?
Answer: Active

Question: And the Activity [3]?
Answer: Active

Question: And the Activity [4]?
Answer: Active

Question: And the Activity [5]?
Answer: Active

Question: With `CC(C)C[C@H](Nc1cc(O/N=[N+](\[O-])N(C)CCO)c([N+](=O)[O-])cc1[N+](=O)[O-])C(=O)O[C@H]1CC[C@]2(C)[C@H]3CC=C4[C@@H]5CC(C)(C)CC[C@]5(C(=O)O[C@@H]5O[C@H](CO)[C@H](O)[C@H](O)[C@H]5O)CC[C@@]4(C)[C@]3(C)CC[C@H]2C1(C)C` as the compound, how does the Activity [3] read?
Answer: Active

Question: What about the Activity [4] of the same compound?
Answer: Active

Question: And the Activity [5]?
Answer: Active

Question: For `CCN(CC)/[N+]([O-])=N\Oc1cc(NCCC(=O)O[C@H]2CC[C@]3(C)[C@H]4CC=C5[C@@H]6CC(C)(C)CC[C@]6(C(=O)O[C@@H]6O[C@H](CO)[C@H](O)[C@H](O)[C@H]6O)CC[C@@]5(C)[C@]4(C)CC[C@H]3C2(C)C)c([N+](=O)[O-])cc1[N+](=O)[O-]`, which Activity [3] is on record?
Answer: Active

Question: And the Activity [4]?
Answer: Active

Question: And the Activity [5]?
Answer: Active

Question: With `CC1(C)CC[C@]2(C(=O)O[C@@H]3O[C@H](CO)[C@H](O)[C@H](O)[C@H]3O)CC[C@]3(C)C(=CC[C@@H]4[C@@]5(C)CC[C@H](OC(=O)CCNc6cc(O/N=[N+](/[O-])N7CCN(Cc8ccccc8)CC7)c([N+](=O)[O-])cc6[N+](=O)[O-])C(C)(C)[C@@H]5CC[C@]43C)[C@@H]2C1` as the compound, how does the Activity [3] read?
Answer: Active

Question: What about the Activity [4] of the same compound?
Answer: Active

Question: What about the Activity [5] of the same compound?
Answer: Active

Question: With `CN(CCO)/[N+]([O-])=N/Oc1cc(N[C@@H](Cc2ccccc2)C(=O)O[C@H]2CC[C@]3(C)[C@H]4CC=C5[C@@H]6CC(C)(C)CC[C@]6(C(=O)O[C@@H]6O[C@H](CO)[C@H](O)[C@H](O)[C@H]6O)CC[C@@]5(C)[C@]4(C)CC[C@H]3C2(C)C)c([N+](=O)[O-])cc1[N+](=O)[O-]` as the compound, how does the Activity [3] read?
Answer: Active

Question: And the Activity [4]?
Answer: Active

Question: What about the Activity [5] of the same compound?
Answer: Active

Question: How did the Activity [3] turn out when `CN(CCO)/[N+]([O-])=N/Oc1cc(NCCCC(=O)O[C@H]2CC[C@]3(C)[C@H]4CC=C5[C@@H]6CC(C)(C)CC[C@]6(C(=O)O[C@@H]6O[C@H](CO)[C@H](O)[C@H](O)[C@H]6O)CC[C@@]5(C)[C@]4(C)CC[C@H]3C2(C)C)c([N+](=O)[O-])cc1[N+](=O)[O-]` was run?
Answer: Active

Question: What about the Activity [4] of the same compound?
Answer: Active

Question: What about the Activity [5] of the same compound?
Answer: Active

Question: How did the Activity [3] turn out when `C[C@H](Nc1cc(O/N=[N+](\[O-])N(C)CCO)c([N+](=O)[O-])cc1[N+](=O)[O-])C(=O)O[C@H]1CC[C@]2(C)[C@H]3CC=C4[C@@H]5CC(C)(C)CC[C@]5(C(=O)O[C@@H]5O[C@H](CO)[C@H](O)[C@H](O)[C@H]5O)CC[C@@]4(C)[C@]3(C)CC[C@H]2C1(C)C` was run?
Answer: Active

Question: What about the Activity [4] of the same compound?
Answer: Active

Question: What about the Activity [5] of the same compound?
Answer: Active

Question: For `CC1(C)CC[C@]2(C(=O)O[C@@H]3O[C@H](CO)[C@H](O)[C@H](O)[C@H]3O)CC[C@]3(C)C(=CC[C@@H]4[C@@]5(C)CC[C@H](O)C(C)(C)[C@@H]5CC[C@]43C)[C@@H]2C1`, which Activity [1] is on record?
Answer: Active

Question: For `CN(CCO)/[N+]([O-])=N\Oc1cc(NCCC(=O)O[C@H]2CC[C@]3(C)[C@H]4CC=C5[C@@H]6CC(C)(C)CC[C@]6(C(=O)O[C@@H]6O[C@H](CO)[C@H](O)[C@H](O)[C@H]6O)CC[C@@]5(C)[C@]4(C)CC[C@H]3C2(C)C)c([N+](=O)[O-])cc1[N+](=O)[O-]`, which Activity [2] is on record?
Answer: Active

Question: With `CCOC(=O)N1CCN(/[N+]([O-])=N/Oc2ccc([N+](=O)[O-])cc2[N+](=O)[O-])CC1` as the compound, how does the Activity [6] read?
Answer: Active

Question: With `CN1CCN(/[N+]([O-])=N\Oc2cc(NCCC(=O)O[C@H]3CC[C@]4(C)[C@H]5CC=C6[C@@H]7CC(C)(C)CC[C@]7(C(=O)O[C@@H]7O[C@H](CO)[C@H](O)[C@H](O)[C@H]7O)CC[C@@]6(C)[C@]5(C)CC[C@H]4C3(C)C)c([N+](=O)[O-])cc2[N+](=O)[O-])CC1` as the compound, how does the Activity [3] read?
Answer: Active

Question: What about the Activity [4] of the same compound?
Answer: Active

Question: And the Activity [5]?
Answer: Active

Question: Which Activity [3] does the source give for `CN(C)/[N+]([O-])=N\Oc1cc(NCCC(=O)O[C@H]2CC[C@]3(C)[C@H]4CC=C5[C@@H]6CC(C)(C)CC[C@]6(C(=O)O[C@@H]6O[C@H](CO)[C@H](O)[C@H](O)[C@H]6O)CC[C@@]5(C)[C@]4(C)CC[C@H]3C2(C)C)c([N+](=O)[O-])cc1[N+](=O)[O-]` here?
Answer: Active

Question: What about the Activity [4] of the same compound?
Answer: Active

Question: What about the Activity [5] of the same compound?
Answer: Active

Question: With `CN(CCO)c1cc(N2CCN(CC(=O)O[C@H]3CC[C@]4(C)[C@H]5CC=C6[C@@H]7CC(C)(C)CC[C@]7(C(=O)O[C@@H]7O[C@H](CO)[C@H](O)[C@H](O)[C@H]7O)CC[C@@]6(C)[C@]5(C)CC[C@H]4C3(C)C)CC2)c([N+](=O)[O-])cc1[N+](=O)[O-]` as the compound, how does the Activity [7] read?
Answer: inactive

Question: And the Activity [8]?
Answer: Active

Question: What about the Activity [9] of the same compound?
Answer: Active

Question: What about the Activity [1] of the same compound?
Answer: Active

Reference: ChEMBL document CHEMBL2396531, “Hybrid molecule from O2-(2,4-dinitrophenyl)diazeniumdiolate and oleanolic acid: a glutathione S-transferase π-activated nitric oxide prodrug with selective anti-human hepatocellular carcinoma activity and improved stability” (J Med Chem, 2013)
